From US20220185811A1, “FGFR4 KINASE INHIBITOR AND PREPARATION METHOD THEREFOR AND USE THEREOF” (SHOUYAO HOLDINGS (BEIJING) CO., LTD., priority 2019, published 2022)
Where a name gives a salt, the structure may show the parent alone. Read-outs that look alike come from different tables or passages of the source.

Legend:
[1] = biological target: FGFR-4 kinase (Homo sapiens, UniProt P22455); assay: FGFR-4 kinase activity, homogeneous time-resolved fluorescence (HTRF) method; assay type: biochemical; conditions: ATP 25 μM, FGFR-4 kinase 1 nM, read-out: FGFR4 IC50
Experimental: 1. In vitro determination of the protein activity of compounds: The FGFR-4 kinase activity detection platform was established by the homogeneous time-resolved fluorescence (HTRF) method, and the activity of the compound was determined. 1000 μM compounds were subjected to 3-fold gradient dilution in 100% DMSO 11 times (12 concentrations in total), 4 μL diluent from each concentration was added to 96 μL of reaction buffer (50 mM HEPES, pH 7.4, 5 mM MnCl2, 0.1 mM NaVO3, 0.001% Tween-20, 0.01% BAS, 1 mM DTT) and mixed well, as a 4* compound (final concentration of 0.017 nM-1000 nM) for later use. 2 * FGFR-4 kinase (final concentration of 1 nM) was formulated using reaction buffer and 4*substrate (ATP+TK peptide) (TK peptide, HTRF® KinEASETM-TK, purchased from Cisbio, TK peptide, final concentration of 1 μM, ATP final concentration of 25 μ M) was formulated using reaction buffer. 2.5 μL of 4*compound and then 5 μL of 2 * FGFR-4 kinase were added to a 384-well plate (OptiPlate-384, purchased from PerkinElmer), the mixture was mixed by centrifugation, and 2.5 μL of 4 * substrate mixture was added to start the reaction (total reaction volume of 10 µL). The 384-well plate was placed in an incubator 23° C. and stirred for 60 min before the reaction was stopped by the addition of 5 μL of Eu^3+cryptate-labeled anti-phosphotyrosine antibody (TRF® KinEASE™-TK, purchased from Cisbio) and 5 μL of Streptavidin-XL-665 (HTRF® KinEASE™-TK, purchased from Cisbio). After incubation in the incubator for 1 h, fluorescence values (excitation at 320 nm, detecting emitted light at 665 nm and 620 nm, and a ratio of the two as enzyme activity) were read on Envision (purchased from PerkinElmer). The enzyme activity of each compound was measured at 12 concentrations, and the ICso value of the compound was calculated using GraphPad Prism 5.0 software.
The FGFR-4 kinase activity detection platform was established by homogeneous time-resolved fluorescence (HTRF) method, and the activity of compound was determined. 1000 μM compounds were subjected to 3-fold gradient dilution in 100% DMSO 11 times (12 concentrations in total), 4 μL of diluent from each concentration was added to 96 μL of reaction buffer (50 mM HEPES, pH 7.4, 5 mM MnCl2, 0.1 mM NaVO3, 0.001% Tween-20, 0.01% BAS, 1 mM DTT) and mixed well, as a 4* compound (final concentration of 0.017 nM-1000 nM) for later use. 2 * FGFR-4 kinase (final concentration of 1 nM) was formulated using reaction buffer and 4*substrate (ATP+TK peptide)(TK peptide, HTRF® KinEASE™-TK, purchased from Cisbio, TK peptide, final concentration of 1 μM, ATP final concentration of 25 μM) was formulated using reaction buffer. 2.5 μL of 4 * compound and then 5 μL of 2 * FGFR-4 kinase were added to a 384-well plate (OptiPlate-384, purchased from PerkinElmer), the mixture was mixed by centrifugation, and 2.5 μL of 4 * substrate mixture was added to start the reaction (total reaction volume of 10 μL). The 384-well plate was placed in an incubator 23° C. and stirred for 60 min before the reaction was stopped by the addition of 5 μL of Eu^3+cryptate-labled anti-phosphotyrosine antibody (TRF® KinEASE™-TK, purchased from Cisbio) and 5 μL of Streptavidin-XL-665 (HTRF® KinEASE™-TK, purchased from Cisbio). After incubation in the incubator for 1 h, fluorescence values (excitation at 320 nm, detecting emitted light at 665 nm and 620 nm, and a ratio of the two as enzyme activity) were read on Envision (purchased from PerkinElmer). The enzyme activity of each compopund was measured at 12 concentrations, and the ICso value of the compound was calculated using GraphPad prism 5.0 software.

[2] = tested on: Human hepatoma cells Hep3b; assay: Cell proliferation inhibition, Cell Titer-Glo; assay type: cell-based; conditions: 72 h
Experimental: 2. Determination of cell proliferation activity of compounds:
Cell Titer-Glo ® detection reagent from Promega was used to establish the suspension cell proliferation inhibition screening method. Human hepatoma cells Hep3b (Xiehe Cell Research Center) were cultured in 25 cm^2 or 75 cm^2 plastic tissue culture flasks (Corning®) filled with MEM (Gibco®) medium supplemented with 10% fetal bovine serum (Hyclone®) under 37° C., 95% air and 5% CO2, and subcultured 2-3 times a week.
(§1) Hep3b cells were seeded in a 96-well cell culture plate (Corning®) at a density of 3×10^3 cells/well, […], and cultured under 37° C., 95% air, and 5% CO2. After 24 h the test compound was added: 10 mM compounds (dissolved in DMSO) were subjected to 3-fold gradient dilution in DMSO , […] of diluent from each concentration was added to […] of serum-free medium, and finally […] of compound diluted in the medium was added to the plate seeded with cells. The final concentration of DMSO in the cell culture medium was 0.1% and the final concentration of the test compound was 0.3 nM-[…]. The above cells were incubated for 3 days under 37° C.
After 3 days, the cell viability assay was performed by the Cell Titer-Glo (Promega) kit, and finally, the inhibitory concentration 50% of the compound on cell proliferation, i.e. the IC 50 value, was calculated by the GraphPad Prism 5.0 program.
as §1, with “DMSO,” for “DMSO ,”, “finally,” for “finally”, “of” for “of the”
After 3 days, the cell viability assay was performed by the Cell Titer-Glo (Promega) kit, and finally the inhibitory concentration 50% of the compound on cell proliferation, i.e. the IC 50 value, was calculated by the GraphPad Prism 5.0 program.

[3] = Hep3B, Table 1, 3 days incubation
[4] = Hep3B, Table 2, 3 days incubation

FGFR-4 kinase, sequence (P22455 22-802): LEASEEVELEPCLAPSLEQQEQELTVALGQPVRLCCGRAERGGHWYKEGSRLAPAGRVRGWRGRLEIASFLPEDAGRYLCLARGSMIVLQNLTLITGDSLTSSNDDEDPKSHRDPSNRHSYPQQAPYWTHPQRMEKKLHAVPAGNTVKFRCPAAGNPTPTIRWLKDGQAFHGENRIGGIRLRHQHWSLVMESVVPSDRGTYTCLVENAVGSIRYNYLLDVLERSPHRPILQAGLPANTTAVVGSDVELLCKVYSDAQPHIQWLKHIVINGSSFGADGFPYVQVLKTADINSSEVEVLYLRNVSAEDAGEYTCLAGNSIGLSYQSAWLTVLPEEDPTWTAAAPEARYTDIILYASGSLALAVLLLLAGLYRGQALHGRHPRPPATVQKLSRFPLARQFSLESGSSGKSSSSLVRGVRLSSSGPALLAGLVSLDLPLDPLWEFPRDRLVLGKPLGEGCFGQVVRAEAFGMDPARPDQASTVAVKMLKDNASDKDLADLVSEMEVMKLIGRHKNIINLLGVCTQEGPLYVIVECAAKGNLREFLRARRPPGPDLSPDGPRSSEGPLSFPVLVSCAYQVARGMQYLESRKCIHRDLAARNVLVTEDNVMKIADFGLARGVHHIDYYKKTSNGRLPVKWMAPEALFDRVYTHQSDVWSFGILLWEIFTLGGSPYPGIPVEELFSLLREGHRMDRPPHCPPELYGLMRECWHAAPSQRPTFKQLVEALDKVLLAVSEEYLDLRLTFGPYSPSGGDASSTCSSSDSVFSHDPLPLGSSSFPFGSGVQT

IC50 ([1]; Table 1) | IC50 [2, 3] | IC50 ([1]; Table 2) | IC50 [2, 4] | Structure (SMILES) | IC50 ([2]; Table 2, 3 days incubation)
6.1 nM | 76.8 nM |  |  | CC#CC(=O)Nc1cc(-c2cc3c(cn2)cc(-c2c(Cl)c(OC)cc(OC)c2Cl)c2nccn23)c(OC)cc1N1CCN(C)C2(CC2)C1 [Example 32, N-(5-(4-(2,6-dichloro-3,5-dimethoxyphenyl)imidazo[1,2-a][1,6]naphthyridin-8-yl)-4-methoxy-2-(4-methyl-4,7-diazaspiro[2.5]octan-7-yl)phenyl)but-2-ynamide] | 
 |  | 0.4 nM | 81.3 nM | C=CC(=O)Nc1cc(-c2cc3c(cn2)cc(-c2c(Cl)c(OC)cc(OC)c2Cl)c2nccn23)c(OC)cc1N1CCC(N(C)C)CC1 [Example 67] | 
5.79 nM | 71.7 nM |  |  | C=CC(=O)Nc1cc(-c2cc3c(cn2)cc(-c2c(Cl)c(OC)cc(OC)c2Cl)c2nccn23)c(OC)cc1N1CCC2(CC1)CCN(C1CC1)CC2 [Example 19, N-(2-(9-cyclopropyl-3,9-diazaspiro[5.5]undecan-3-yl)-5-(4-(2,6-dichloro-3,5-dimethoxyphenyl)imidazo[1,2-a][1,6]naphthyridin-8-yl)-4-methoxyphenyl)acrylamide] | 
2.43 nM | 74.7 nM |  |  | C=CC(=O)Nc1cc(-c2cc3c(cn2)cc(-c2c(Cl)c(OC)cc(OC)c2Cl)c2nccn23)c(OC)cc1N1CCNC2(CC2)C1 [Example 9, N-(5-(4-(2,6-dichloro-3,5-dimethoxyphenyl)imidazo[1,2-a][1,6]naphthyridin-8-yl)-4-methoxy-2-(4,7-diazaspiro[2.5]octan-7-yl)phenyl)acrylamide trifluoroacetate] | 
 |  | 0.9 nM | 95.2 nM | C=CC(=O)Nc1cc(-c2cc3c(cn2)cc(-c2c(Cl)c(OC)cc(OC)c2Cl)c2nccn23)c(OC)cc1N1CCN(C#N)CC1 [Example 60, N-(2-(4-cyanopiperazin-1-yl)-5-(4-(2,6-dichloro-3,5-dimethoxyphenyl)imidazo[1,2-a][1,6]naphthyridin-8-yl)-4-methoxyphenyl)acrylamide] | 
 |  | 0.3 nM | 69.7 nM | C=CC(=O)Nc1cc(-c2cc3c(cn2)cc(-c2c(Cl)c(OC)cc(OC)c2Cl)c2nccn23)c(OC)cc1N1CCC(N2CCN(C)CC2)CC1 [Example 64, N-(5-(4-(2,6-dichloro-3,5-dimethoxyphenyl)imidazo[1,2-a][1,6]naphthyridin-8-yl)-4-methoxy-2-(4-(4-methylpiperazin-1-yl)piperidin-1-yl)phenyl)acrylamide] | 
3.63 nM | 81.3 nM |  |  | CC#CC(=O)Nc1cc(-c2cc3c(cn2)cc(-c2c(Cl)c(OC)cc(OC)c2Cl)c2nccn23)c(OC)cc1N1CCC(N2CCOCC2)CC1 [Example 31, N-(5-(4-(2,6-dichloro-3,5-dimethoxyphenyl)imidazo[1,2-a][1,6]naphthyridin-8-yl)-4-methoxy-2-(4-morpholinopiperidin-1-yl)phenyl)but-2-ynamide] | 
2.16 nM | 107 nM |  |  | C=CC(=O)Nc1cc(-c2cc3c(cn2)cc(-c2c(Cl)c(OC)cc(OC)c2Cl)c2nccn23)c(OC)cc1N1CCN(C(C)=O)CC1 [Example 37, N-(2-(4-acetylpiperazin-1-yl)-5-(4-(2,6-dichloro-3,5-dimethoxyphenyl)imidazo[1,2-a][1,6]naphthyridin-8-yl)-4-methoxyphenyl)acrylamide] | 
2.17 nM | 34.4 nM |  |  | CC#CC(=O)Nc1cc(-c2cc3c(cn2)cc(-c2c(Cl)c(OC)cc(OC)c2Cl)c2nccn23)c(OC)cc1N1CCOCC1 [Example 29, N-(5-(4-(2,6-dichloro-3,5-dimethoxyphenyl)imidazo[1,2-a][1,6]naphthyridin-8-yl)-4-methoxy-2-morpholinophenyl)but-2-ynamide] | 

Structure (SMILES) | IC50 ([1]; Table 1) | IC50 [2, 3] | IC50 ([1]; Table 2) | IC50 [2, 4] | IC50 ([2]; Table 2, 3 days incubation)
C=CC(=O)Nc1cc(-c2cc3c(cn2)cc(-c2c(Cl)c(OC)cc(OC)c2Cl)c2nccn23)c(OC)cc1N1CCOCC1 [Example 54, N-(5-(4-(2,6-dichloro-3,5-dimethoxyphenyl)imidazo[1,2-a][1,6]naphthyridin-8-yl)-4-methoxy-2-morpholinophenyl)acrylamide] |  |  | 0.7 nM |  | 21.5 nM
C=CC(=O)Nc1cc(-c2cc3c(cn2)cc(-c2c(Cl)c(OC)cc(OC)c2Cl)c2nccn23)c(OC)cc1N1CC2CCC(C1)N2C(C)=O [Example 7, N-(2-(8-acetyl-3,8-diazabicyclo[3 .2.1]octan-3-yl)-5-(4-(2,6-dichloro-3,5-dimethoxyphenyl)imidazo[1,2-a][1,6]naphthyridin-8-yl)-4-methoxyphenyl)acrylamide] | 1.74 nM | 83.6 nM |  |  | 
